{"source": "patent US8067464B2", "about": "“Compositions and methods using apocynin compounds and nitric oxide donors” (Nitromed, Inc., priority 2004, dated 2011)", "origin": "cited, not measured here"}
{"smiles": "O=[N+]([O-])O[C@H]1CO[C@H]2[C@@H]1OC[C@H]2O[N+](=O)[O-]", "note": "[isosorbide dinitrate, 1,4,3,6-dianhydro-D-glucitol-2,5-dinitrate]", "values": [{"measurement": "solubility in organic solvents", "setting": "organic solvents such as ethanol, ether and chloroform", "result": "freely soluble"}, {"measurement": "solubility in water", "setting": "water", "result": "sparingly soluble"}]}
